ChEMBL document CHEMBL5620416, “Design, synthesis and development of a dual inhibitor of Topoisomerase 1 and poly (ADP-ribose) polymerase 1 for efficient killing of cancer cells” (Eur J Med Chem, 2023)
Active and inactive are the calls of the source. No cut-off for these calls is given here.

What was measured:
HCT-116 [1] = assay: Induction of cell cycle arrest in human HCT-116 cells assessed as accumulation of cells at Sub-G1 phase at 20 uM incubated for 24 hrs by PI staining based flow cytometry analysis (reference value: 1.1 +/- 0.1%); type: functional
[2] = Stability in human plasma incubated for 2 hrs by HPLC analysis; type: ADME, cell-free; conditions: read-out: Stability
HCT-116 [3] = assay: Induction of cell cycle arrest in human HCT-116 cells at 5 to 20 uM by PI staining based flow cytometry analysis; type: functional; conditions: dose 5-20 µM, time 24-48 hrs, TDE = time-dependent effect
HCT-116 [4] = assay: Cytotoxicity against human HCT-116 cells at less than 10 uM incubated for 7 to 10 days by crystal violet staining based assay; type: functional, cell-based; conditions: time 7-10 day
PANC-1 [5] = assay: Cytotoxicity against human PANC-1 cells incubated for 72 hrs by MTT assay; type: functional, cell-based; conditions: PANC-1, 72 h
HCT-116 [6] = assay: Induction of cell cycle arrest in human HCT-116 cells assessed as accumulation of cells at G2 phase at 10 uM incubated for 48 hrs by PI staining based flow cytometry analysis (reference value: 26%); type: functional
PANC-1 [7] = assay: Cytotoxicity against human PANC-1 cells at less than 10 uM incubated for 7 to 10 days by crystal violet staining based assay; type: functional, cell-based; conditions: time 7-10 day
[8] = molecular target: T1, DNA topoisomerase 1 (Homo sapiens) (UniProt P11387); assay: Induction of TOP1 degradation in human HCT-116 cells at 20 uM after 2 to 24 hrs by alkaline lysis method; type: cell-based; conditions: time 2-24 hrs
T1 sequence (whole entry): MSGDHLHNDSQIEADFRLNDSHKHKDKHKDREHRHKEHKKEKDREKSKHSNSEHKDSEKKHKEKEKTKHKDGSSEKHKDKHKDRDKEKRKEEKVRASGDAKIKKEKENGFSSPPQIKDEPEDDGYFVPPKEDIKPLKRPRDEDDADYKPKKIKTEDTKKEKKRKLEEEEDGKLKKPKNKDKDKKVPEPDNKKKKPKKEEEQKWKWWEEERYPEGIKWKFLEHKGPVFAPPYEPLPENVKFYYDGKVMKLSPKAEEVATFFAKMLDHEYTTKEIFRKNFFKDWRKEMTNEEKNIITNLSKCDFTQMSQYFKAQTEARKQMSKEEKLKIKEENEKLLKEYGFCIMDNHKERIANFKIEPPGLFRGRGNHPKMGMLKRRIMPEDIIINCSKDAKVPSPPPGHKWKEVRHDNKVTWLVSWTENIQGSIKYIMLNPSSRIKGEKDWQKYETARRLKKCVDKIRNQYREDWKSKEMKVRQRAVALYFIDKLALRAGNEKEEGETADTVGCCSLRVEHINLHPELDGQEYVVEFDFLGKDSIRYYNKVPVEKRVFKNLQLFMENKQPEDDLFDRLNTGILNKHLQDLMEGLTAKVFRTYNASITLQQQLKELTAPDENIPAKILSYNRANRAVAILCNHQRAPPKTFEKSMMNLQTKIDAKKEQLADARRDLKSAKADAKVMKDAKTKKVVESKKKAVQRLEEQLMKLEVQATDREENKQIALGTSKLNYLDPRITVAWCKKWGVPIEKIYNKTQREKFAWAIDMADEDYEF

HCT-116 [9] = assay: Induction of PARylation in human HCT-116 cells at 20 uM incubated for 2 to 8 hrs by Western blotting analysis; type: functional, cell-based; conditions: time 2-8 hrs
MCF-10A = assay: Cytotoxicity against human MCF-10A cells at 50 uM incubated for 72 hrs by MTT assay; type: toxicity, cell-based
Calf thymus DNA = assay: Binding affinity to calf thymus pUC19 DNA assessed as intercalating activity by measuring conformational change in DNA at 50 to 300 uM incubated for 30 mins by EtBr staining based agarose gel electrophoresis; type: nucleic-acid assay; conditions: Bos taurus, dose 50-300 µM
HCT-116 [10] = assay: Induction of cell cycle arrest in human HCT-116 cells assessed as accumulation of cells at Sub-G1 phase at 10 uM incubated for 24 hrs by PI staining based flow cytometry analysis (reference value: 1.1 +/- 0.1%); type: functional
HCT-116 [11] = assay: Induction of PARylation in human HCT-116 cells at 1 uM incubated for 4 hrs by Western blotting analysis; type: functional, cell-based
[12] = test system: DNA topoisomerase 1/Deoxyribonucleic acid (Homo sapiens); assay: Induction of TOP1-DNA covalent complex stabilization in human HCT-116 cells at 20 uM by immunofluorescence microscopic assay; type: cell-based; conditions: time 2-8 hrs, TDE = time-dependent effect

remaining at 2 h [2]: > 70%
Activity [8]: Active
Activity (Calf thymus DNA): inactive
Activity [12]: Tde
SMILES: O=C1c2cccc3cccc(c23)C(=O)N1CCSc1nnc(Cn2nc(Cc3ccc(F)cc3)c3ccccc3c2=O)o1
Activity (HCT-116 [1]): 39.1%
Activity (HCT-116 [3]): Tde
Activity (HCT-116 [4]): Active
IC50 (PANC-1 [5]): 4 µM
Activity (HCT-116 [6]): 32%
Activity (PANC-1 [7]): Active
Activity (HCT-116 [9]): Active
Activity (MCF-10A): > 80%
Activity (HCT-116 [10]): 30.8%
Activity (HCT-116 [11]): Active
